Results published in publication PMC9043238, “Evaluation of Potential DnaK Modulating Proline-Rich Antimicrobial Peptides Identified by Computational Screening” (Frontiers in Chemistry, 2022).
Entries after “also recorded” stand apart in the source; their conditions may differ.

Key:
[1] = system: DnaK; details: peptide 300 µM; 0.3 µM DnaK; 20 mM TRIS, 150 mM KCl, 5 mM MgCl2, 1 mM ATP, pH 7.5; 1 h at 37°C; Malachite Green, A620; result in words (Figure 1)
Method: Peptides were assessed for their capacity to inhibit the ATPase activity of DnaK by a colorimetric assay. Peptide at 300 µM concentration were assayed in 100 µl format where each reaction contained 0.3 µM of DnaK in DnaK assay buffer (20 mM TRIS, 150 mM KCl, 5 mM MgCl2, 1 mM ATP, pH 7.5). After 60 min, 20 µl samples were taken (3 x per reaction) for assessment by Malachite Green Phosphate assay kit (Sigma—MAK307). The samples were added to 80 µl of Milli-Q water in a 96 well plate, before adding 20 µl of staining solution, and incubated at room temperature for 30 min before measuring A620 on a plate reader ([Zahn et al., 2013]). A negative control was included for each peptide where the same assay conditions are used in the absence of DnaK. The relative activity of DnaK in the presence of each of the putative DnaK binding peptides was assessed using the following equation: DnaKacitivity %= (OD620 sample−OD620 negative control)/(OD620 positive control−OD620 negative control) × 100
We selected four potential PrAMPs from the list of newly identified PrAMPs for evaluation. […] Each was chemically synthesized, purified, and exchanged into HCl salt prior to investigation of antimicrobial properties (Supplementary Information, Supplementary Figure S1). The ability of the potential PrAMPs to modulate the activity of DnaK was assessed at 300 µM in vitro through a colorimetric assay with a known binder of DnaK, oncocin, as a positive control peptide (Figure 1).
Each was incubated with DnaK for 1 h at 37°C and the free phosphate generated was detected with a Malachite Green-based stain. Activities are reported in % activity relative to DnaK positive and DnaK negative samples with constraints at 0% activity. All peptides were assayed at 300 µM. One-way ANOVA followed by Dunnett’s multiple comparisons test was performed to compare the control (DnaK) to each of the peptides, p < 0.05 (*) and p < 0.001 (**) are indicated.

[2] = system: Escherichia coli ATCC 25922 and E. coli BAA 3051; assay: Antibacterial MIC assay, E. coli; assay type: cell-based; details: MHB, serial dilution up to 128 µM, 6 h growth, OD read-out, MIC = concentration at which growth surpassed 10%; result in words
Method: (§1) For the antimicrobial assays, the strains used were as follows: Staphylococcus aureus ATCC 29213, Escherichia coli ATCC 25922 and E. coli BAA 3051.
(§2) Peptides were assessed for their MIC against various bacterial strains. Peptides were serially diluted at two x final concentration across a 96 well plate with the final well containing no peptide and control lanes of no antibacterial agent, and lanes of no bacteria or antibacterial agent. All dilutions were in sterile MHB. Each bacterial strain was grown overnight before inoculation of a fresh culture in the morning of assay, the culture was allowed to grow until OD600 = ∼1.0 before dilution to achieve 2 × 10^6 CFU/ml based of the equations 2e+7e^(2.9218∗OD600) for E. coli and 2e+7e^(2.5537∗OD600). Bacteria were added 1:1 to wells containing the serially diluted peptide(s) and were allowed to grow for 6 h, in regards to E. coli, or 24 h, in regards to S. aureus, before measuring OD620 on a plate reader. Bacterial growth per well was determined using the following equation: Bacterial growth %= (OD600 sample−OD600 negative control)/(OD600 positive control−OD600 negative control)×100
(§3) The MIC breakpoint was determined using GraphPad PRISM observing for the concentration at which growth surpassed 10%.
FIGURE 2 Minimum inhibitory concentration of potential PrAMPs. Each of the potential PrAMPs were assayed for MIC against E. coli ATCC 25922 (A), E. coli BACC 3051 (B), and S. aureus 29213 (C), up to 128 µM in MHB media.

[3] = system: Staphylococcus aureus ATCC 29213; assay: Antibacterial MIC assay, S. aureus; assay type: cell-based; details: MHB, up to 128 µM, 24 h growth, OD read-out; result in words
Method: as §1, §2, §3
FIGURE 2 Minimum inhibitory concentration of potential PrAMPs. […]

[4] = system: E. coli ATCC 25922; assay: MIC of peptide combinations (synergy); assay type: cell-based, Escherichia coli; details: equimolar combination with oncocin or P9, Figure 3
Method: as §2, §3
One potential reason is that these peptides are unable to access the cytoplasm of the cell. Consequently, the synergistic capacity of PP30, attacin-C, and antibacterial napin with oncocin or P9 was examined (Figure 3).
(A) MIC assessment of oncocin with/without antibacterial napin/PP30/attacin-C. (B) MIC assessment of P9 with/without antibacterial napin/PP30/attacin-C. Each peptide is present in equimolar concentration with the individual concentration shown in the X axis.

[5] = system: Bacillus subtilis; details: Gram-positive bacterium; ref Ngai and Ng, 2004; cited from earlier work
Method: (§4) It is interesting to note that the peptides tested which inhibit DnaK are in fact not antimicrobial at concentrations of 128 µM or less. This may be because the peptides act in vivo as part of a complex multi-peptide cocktail with synergistic effects.

[6] = system: E. coli; details: Gram-negative bacterium; ref Ngai and Ng, 2004; cited from earlier work
Method: as §4

[7] = system: DnaK; details: ref Krizsan et al., 2014; cited from earlier work
From the text: Recently, we assessed a new set of criteria for PrAMPs and scanned the DRAMP database (http://dramp.cpu-bioinfor.org/) to detect novel PrAMPs based on similarity to known DnaK inhibitors ([Welch et al., 2020]). […] Here, we undertook screening of these putative new ...

[8] = system: bacterial membrane; details: ref Shen et al., 2010; cited from earlier work
From the text: This dual mode of action of PP30, membrane lysis and DnaK […], is novel and unreported for other native PrAMPs.

Sequence	Effect on DnaK activity (ATP hydrolysis), % activity relative to DnaK positive and negative samples [1]	Antimicrobial activity (MIC assessment) against E. coli [2]	Antimicrobial activity (MIC assessment) against S. aureus [3]	Synergy in combination treatment (MIC) [4]	Activity against Bacillus subtilis [5]	Activity against E. coli [6]	DnaK binding [7]	Membrane-lytic action [8]
PAQPFRFPKHPQGPQTRPPI [Antibacterial napin, predicted PrAMP from the DRAMP database, chemically synthesized 20-residue peptide]	inhibit DnaK activity	inactive; also recorded: lack of direct antimicrobial activity	inactive	no synergistic effects	active	inactive	–	–
QRPYTQPLIYYPPPPTPPRIYRA [Attacin-C, predicted PrAMP from the DRAMP database, chemically synthesized 23-residue peptide]	inhibit DnaK activity	lack of direct antimicrobial activity	–	no synergistic effects	–	–	–	–
RFIPPILRPPVRPPFRPPFRPPFRPPPIIRFFGG [P9, predicted PrAMP from the DRAMP database, chemically synthesized 34-residue peptide]	increases the ATP hydrolysis of DnaK	potent antimicrobial activity	–	–	–	–	–	–
VDKPPYLPRPRPPRRIYNR [Oncocin]	–	–	–	–	–	–	DnaK binder	–
YVPPVQKPHPNGPKFPTFP [PP30, predicted PrAMP from the DRAMP database, chemically synthesized 19-residue peptide]	inhibit DnaK activity	has not however resulted in observable MICs; also recorded: lack of direct antimicrobial activity	–	no synergistic effects	–	–	–	membrane-lytic
